Experimental data: patent US6676950B2, “Neurokinin receptor antagonists and methods of use thereof for inhibiting HIV infection” (The Children's Hospital of Philadelphia, priority 2001, dated 2004)

Tests used:
HIV Bal strain = assay: HIV RT activity in culture supernatants of HIV Bal strain-infected MDM; format: cell-based, HIV-1; settings: for HIV RT activity increased: MDM, HIV Bal
Description: The cells were also incubated with SP and/or anti-SP antibody. In this case, SP was incubated with (1:1000 dilution in 10% FCS DMEM) or without anti-SP antibody at room temperature for 10 min and then the mixture was added to the cell cultures for 2 h. When the cells were treated with the combination of CP-96,345 and SP, or CP-96,345, SP and anti-SP antibody, CP-96,345 was incubated with the cell culture for 10 min and then SP was added to the MDM or CP-96,345, SP and anti-SP (1:1000 in 10% FCS DMEM) were incubated for 10 min at room temperature and the mixture was incubated with the MDM for 2 h before infection with HIV. Untreated MDM served as controls. The cells were treated prior to, during, and throughout the infection.
HIV Infection: After 2 h incubation with or without the reagents described above, the cells were infected with equal amounts of cell-free HIV based on p24 antigen content (20 ng/10^6 cells) overnight, and then washed to remove unbound virus. Fresh media containing SP and/or CP-96,345 or anti-SP antibody were added to the MDM as described above. The culture media and the reagents were replaced twice weekly. The culture supernatants were harvested for HIV reverse transcriptase (RT) activity determinations. After HIV infection, the MDM were incubated for 8 to 12 days. At the termination of the experiments, cellular RNA was extracted for assessment of HIV gag gene expression using RT-PCR or real time RT-PCR assays.
The HIV RT activity assay was carried out based on the technique of Willey et al. (30) with modification (22).

CCR5 = assay: Flow cytometry of CCR5 receptor expression on MDM; format: cell-based, human; settings: incubated overnight (24 h); direct immunofluorescence
Description: The cells were removed from the culture plate and then resuspended in 100 μl of phosphate-buffered saline (PBS). After incubation with 20 μl of either anti-CCR5-FITC or anti-CXCR4-FITC or anti-CD4-FITC or anti-CD14-FITC for 45 min at 4° C., the cells were washed twice with PBS and fixed with 1% paraformaldehyde in PBS. Fluorescein-conjugated control antibodies were isotype-matched IgG. Fluorescence was analyzed on an EPICS-Elite flow cytometer (Beckman-Coulter Electronics, Hialeah, Fla.).

HIV LTR promoter = assay: HIV LTR-driven CAT activity assay in U38 cells; format: cell-based
From the text: ACH-2 and U38 cell lines (25, 26) were obtained from the NIH AIDS Reagent Program. DNA extracted from ACH-2 cells was used as a positive standard for HIV DNA PCR as previously reported (27). The U38 cell line contains stably integrated, silent copies of the HIV LTR (long terminal repeat) promoter linked to a CAT (chloramphenicol acetyltransferase) gene and was used to study the effect of SP and/or CP-96,345 and R-113281 on the activation of HIV LTR promoter.
Chloramphenicol acetyltransferase (CAT) activity assay: U38 cells (2×10^6 cells) were incubated with different concentrations of SP and/or CP-96,345 or R-113281 for 48 h. Untreated U38 cells were used as a background control. Cellular proteins were extracted using 1X Reporter Lysis Bufffer (Promega Corp., Madison, Wis.). The lysates were incubated with a mixture containing 0.15 μCi of ^14C-labeled chloramphenicol (DuPont Inc., Boston, Mass.) and 200 μg/ml of n-Butyryl CoA (Promega Corp., Madison, Wis.) in a total volume of 125 μl at 37° C. for 3 h. The acetylated forms of chloramphenicol were extracted with xylene (Aldrich Chemical Company, Milwaukee, Wis.). CAT activity of each sample was quantified using a liquid-scintillation counter (Packard Instrument Company, Downers Grove, Ill.). The results were expressed as the ratio of CAT activity (CPM) of the SP and/or CP-96,345-treated or R-113281-treated U38 to that of the background control.

| Molecule | viral replication as determined by HIV RT activity (HIV Bal strain; 10^−7M, 8 days after infection, vs HIV infection control) | CCR5 receptor expression on MDM (percentage positive cells) (CCR5) | HIV RT activity increased (HIV Bal strain; SP 10^−6M, 12 days after infection) [%] | HIV RT activity increased (HIV Bal strain; SP 10^−8M, 12 days after infection) [%] | HIV RT activity increased (HIV Bal strain; SP 10^−10M, 12 days after infection) [%] | HIV replication in MDM (HIV RT activity and HIV gag mRNA levels) (HIV Bal strain; SP alone 10^−6M, 12 days after infection) | HIV LTR-driven CAT activity (HIV LTR promoter; SP 10^−10 to 10^−6M, 48 h, P<0.05 vs untreated control cells) | HIV LTR-driven CAT activity (HIV LTR promoter; SP (10^−5M), 48 hours) |
| --- | --- | --- | --- | --- | --- | --- | --- | --- |
| COc1ccccc1CN[C@H]1C2CCN(CC2)[C@H]1C(c1ccccc1)c1ccccc1 [CP-96,344] | did not have the effect | did not affect |  |  |  |  |  |  |
| Substance P [SP] |  |  | 58 | 40 | 14 | enhanced HIV replication | significantly increased | significantly increases |
